According to patent publication US9169288B2, “Peptidomimetics and their application” (Instytut Medycyny Doswiadczalnej i Klinicznej im. Miroslawa …, priority 2012, dated 2015):
Read-outs that look alike come from different tables or passages of the source.

Key:
Conditions in all cases: mouse, at 4 hours
[1] = system: constipation induced by morphine
Experimental: The mice were divided into three groups one as control and two administered intraperitoneally with morphine hydrochloride (5 mg/kg).

[2] = system: constipation induced by loperamide
Experimental: The mice were divided into three groups one as control and two administered with loperamide hydrochloride (5 mg/kg).

[3] = system: constipation induced by loperamide; remark: listed apart in the source

Molecule: CN1CC[C@]23c4c5ccc(O)c4O[C@H]2[C@@H](O)C=C[C@H]3[C@H]1C5 [morphine, reference compound]
- wet weight of stools, opioid alone ([1]; morphine hydrochloride 5 mg/kg intraperitoneally alone, control group 200 mg): 25 mg

Molecule: tyrosyl-D-alanyl-glycyl-cinnamylpiperazine hydrochloride [peptidomimetic 1]
- stools relative to control group ([2]; peptidomimetic 10 mg/kg orally 30 minutes before loperamide hydrochloride 5 mg/kg): 80%
- wet weight of stools ([2]; peptidomimetic 10 mg/kg orally 30 minutes before loperamide hydrochloride 5 mg/kg, control group 200 mg): 160 mg

Molecule: CN(C)C(=O)C(CCN1CCC(O)(c2ccc(Cl)cc2)CC1)(c1ccccc1)c1ccccc1 [loperamide, reference compound]
- wet weight of stools, opioid alone ([2]; loperamide hydrochloride 5 mg/kg alone, control group 200 mg): 15 mg
- wet weight of stools, opioid alone ([3]; loperamide 5 mg/kg orally in 20% gum arabic alone, control group 200 mg): 22 mg

Molecule: tyrosyl-D-threonyl-glycyl-phenylalanyl-cinnamylpiperazine hydrochloride [peptidomimetic 2]
- reversal of morphine effect on stools ([1]; peptidomimetic orally 30 minutes before morphine hydrochloride 5 mg/kg intraperitoneally): fully reversed morphine effect

Molecule: Tyrosyl-D-arginyl-cinnamylpiperazine dihydrochloride [peptidomimetic 3]
- stools relative to control group ([3]; loperamide 5 mg/kg with peptidomimetic 10 mg/kg in 20% gum arabic): 60%
- wet weight of stools ([3]; loperamide 5 mg/kg with peptidomimetic 10 mg/kg in 20% gum arabic, control group 200 mg): 120 mg
